Usually IC50 stands for the concentration that gives 50% inhibition. Higher therefore signals weaker potency in that assay. By Kd is commonly meant the equilibrium constant for the complex coming apart.

In experiment [1] the target is D-amino acid oxidase (DAAO) (Homo sapiens, UniProt P14920). Nature of the experiment: DAAO enzymatic assay. Type of experiment: biochemical. The conditions noted are these: 5 mM D-serine, pH 8.5. As for the experimental part:
A reaction mixture for the DAAO assay, with a final volume of 100 µL was made with 1 µL 2 times serially diluted α12G (4 µM to 7.8 nM), 45 µM FAD, 10 units of HRP, 60 ng DAAO, 10 mM Amplex Red^TM, 5 mM D-serine, and 100 mM Tris HCl (pH = 8.5). All reactions were performed in duplicates. The fluorescence was detected by a fluorometric meter (TECAN Infinite 200). The racemization percentage was calculated as follows: activity % = (Fsample, 20 min − Fsample, 0 min)/(Fblank, 20 min − Fblank, 0 min) × 100%.

Experiment [2] concerns MK-801-induced PPI deficit. Nature of the experiment: Prepulse inhibition test in MK-801-treated mice. The format is in vivo, C57BL/6J male mice. To be noted: 1 mg/kg oral, 0.3 mg/kg MK-801 IP; PPI 6 and PPI 10; p < 0.05, n = 14. The procedure:
(§1) For behavioral studies, α12G was dissolved in 35% PEG-400 and administrated by oral gavage 20 min prior to the MK-801 insult. MK-801 (Sigma-Aldrich, St. Louis, MO, USA) was administrated via intraperitoneal (IP) injection 20 min prior to the behavioral tests, with the dosage of 0.2 mg/kg for the open field test and novel object recognition test and 0.3 mg/kg for the prepulse inhibition test.
C57BL/6J male mice were randomly assigned into five groups, 6–21 mice per group, (1) saline control, (2) MK-801, (3) 1 mg/kg α12G + MK-801, (4) 3.5 mg/kg α12G + MK-801, and (5) 10 mg/kg α12G + MK-801. Prepulse inhibition (PPI), a measurement of sensorimotor gating, served as a biomarker of schizophrenia. Using the SR-LAB startle apparatus (San Diego Instruments, San Diego, CA, USA), the PPI ratio with startle response was elicited by various acoustic stimuli. Each C57BL/6J male mouse was placed in an acrylic cylinder in a dark and sound-insulated chamber. With a constant 65 dB background noise, the session comprised a 5 min acclimation period followed by 4 blocks including a total of 64 trials. […] The ratio of PPI was calculated from the startle response by the following formula: PPI % = 100 × [(PA score) − (pp-P score)]/(PA score), while the PA score was averaged from PA values in the two middle blocks.

Experiment [3] deals with MK-801-induced hyperactivity. The experiment is described as follows: Open field test in MK-801-treated mice. The conditions noted are these: oral gavage 20 min before 0.2 mg/kg MK-801 IP; p < 0.001, n = 8. Type of experiment: in vivo, C57BL/6J male mice. The procedure:
as §1
C57BL/6J male mice were randomly assigned into six groups, 7–12 mice per group, (1) saline control, (2) MK-801, (3) 1 mg/kg α12G + MK-801, (4) 3 mg/kg α12G + MK-801, (5) 10 mg/kg α12G + MK-801, and (6) 30 mg/kg α12G + MK-801. The mice were placed in a Plexiglas cage (37.5 × 21.5 × 18 cm), and their spontaneous locomotor activities were measured for 60 min using a Photobeam Activity System (PAS) open field (San Diego Instruments, San Diego, CA, USA). The total photo beam breaks of each mouse were measured as an index of locomotor activity.

Another experiment has as its target T1, hSR (Homo sapiens, UniProt Q9GZT4).
T1 construct: 6xHis (C); made in house; host or cells: E. coli BL21 (pET42b-hSR)
T1 sequence (Q9GZT4 1-340): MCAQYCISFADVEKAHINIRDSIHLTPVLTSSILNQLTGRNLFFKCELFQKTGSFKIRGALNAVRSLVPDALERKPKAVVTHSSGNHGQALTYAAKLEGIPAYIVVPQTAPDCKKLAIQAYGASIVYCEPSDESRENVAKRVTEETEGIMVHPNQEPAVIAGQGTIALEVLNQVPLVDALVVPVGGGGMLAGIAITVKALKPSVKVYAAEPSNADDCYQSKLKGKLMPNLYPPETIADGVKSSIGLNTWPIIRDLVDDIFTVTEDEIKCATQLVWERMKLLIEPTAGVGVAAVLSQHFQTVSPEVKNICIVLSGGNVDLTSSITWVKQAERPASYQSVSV
The experiment is described as follows: Intrinsic tryptophan fluorescence (ITF) binding assay. To be noted: 0.25 mM ATP, Hill slope model. The procedure: First, 30 µL of 2 µM hSR protein was added into 270 µL buffer (100 mM Tris-HCl, pH 8.0, 1 mM MgCl2, 0.25 mM ATP, 50 µM PLP, 10% DMSO) with ligand and subsequently reacted for 20 min at room temperature. All samples were measured in triplicates and excited at 282 nm. The emission spectra were measured with a 5 nm bandwidth resolution at 300 to 400 nm wavelengths by a Varioskan™ LUX multimode microplate reader (Thermo Fisher Scientific, Lagoas Park, Porto Salvo, Portugal). The fluorescence intensity collected at 304 nm was analyzed using GraphPad Prism 8 software (Dotmatics, Boston, MA, USA). The dissociation constant (Kd) was derived by specific binding with the Hill slope model: Y = Bmax × X^n/(Kd^n + X^n), with X being the ligand concentration, maximum number of binding sites (Bmax) being the maximum specific binding, and n being Hill slope.
The Hill coefficient (n) of 1.28 is close to n = 1, indicating a noncooperative binding.

D-amino acid oxidase (DAAO), sequence (P14920 whole entry, species assumed): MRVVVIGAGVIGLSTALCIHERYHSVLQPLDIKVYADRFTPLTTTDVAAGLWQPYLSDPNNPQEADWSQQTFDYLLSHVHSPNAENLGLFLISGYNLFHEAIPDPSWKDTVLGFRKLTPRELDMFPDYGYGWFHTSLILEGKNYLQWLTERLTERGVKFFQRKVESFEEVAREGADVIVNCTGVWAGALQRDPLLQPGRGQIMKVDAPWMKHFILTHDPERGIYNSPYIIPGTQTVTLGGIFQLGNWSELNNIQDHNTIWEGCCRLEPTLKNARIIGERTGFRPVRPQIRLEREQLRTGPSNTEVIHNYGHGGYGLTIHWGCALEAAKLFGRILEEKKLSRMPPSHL

`O=C(Oc1cc(C(=O)Oc2cc(C(=O)O[C@H]3OC[C@@H](OC(=O)c4cc(O)c(O)c(OC(=O)c5cc(O)c(O)c(OC(=O)c6cc(O)c(O)c(O)c6)c5)c4)[C@H](OC(=O)c4cc(O)c(O)c(OC(=O)c5cc(O)c(O)c(OC(=O)c6cc(O)c(O)c(O)c6)c5)c4)[C@H]3OC(=O)c3cc(O)c(O)c(OC(=O)c4cc(O)c(O)c(OC(=O)c5cc(O)c(O)c(O)c5)c4)c3)cc(O)c2O)cc(O)c1O)c1cc(O)c(O)c(O)c1` [α12G, (2R,3R,4S,5R)-tetrahydro-2H-pyran-2,3,4,5-tetrayl tetrakis(3-((3,4-dihydroxy-5-((3,4,5-trihydroxybenzoyl)oxy)benzoyl)ox)-4,5-dihydroxybenzoate)] came in with an IC50 in experiment [1] of 160 nM. The “Effect on PPI deficits” value in experiment [2] is given as “significantly alleviate PPI deficits”. The “Effect on MK-801-induced hyperactivity (locomotor activity)” value in experiment [3] is “alleviated the MK-801-induced hyperactivity”. The compound further returned a Bmax on hSR of 96.86 fmol/mg. The Kd on hSR (read-out: binding affinity (Kd)) is 240 nM.

For the origin of these results see article PMC11048566, “The Development of a Regulator of Human Serine Racemase for N-Methyl-D-aspartate Function” (Biomedicines, 2024).
